Structures can show the parent of a compound that is named as a salt.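 Five compound concentrations were applied to cells in 96-well plates for 48 hours; endpoints were derived by simple linear interpolation of the resulting dose-response curve. Abbreviation: GI50, concentration required for 50% inhibition of growth.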 Calls of active or inactive are those of the source. Cut-off read from the data, not from the text of the source: active = GI50 up to about 1.1 µM and inactive = higher.
Assays:
Test in all cases: DTP human tumour cell line panel, 48 h
NCI-H460 = tested on: NCI-H460
SNB-75 = tested on: SNB-75
HCC 2998 = tested on: HCC 2998
UACC-257 = tested on: UACC-257
SW-620 = tested on: SW-620
CAKI-1 = tested on: CAKI-1
TK-10 = tested on: TK-10
RPMI-8226 = tested on: RPMI-8226
A549 = tested on: A549
OVCAR-8 = tested on: OVCAR-8
NCI/ADR-RES = tested on: NCI/ADR-RES
MOLT-4 = tested on: MOLT-4
M14 = tested on: M14
HT-29 = tested on: HT-29
SK-MEL-28 = tested on: SK-MEL-28
MDA-N = tested on: MDA-N
ACHN = tested on: ACHN
NCI-H522 = tested on: NCI-H522
OVCAR-4 = tested on: OVCAR-4
NCI-H226 = tested on: NCI-H226

Compound	GI50 (NCI-H460)	GI50 (SNB-75)	GI50 (HCC 2998)	GI50 (UACC-257)	GI50 (SW-620)	GI50 (CAKI-1)	GI50 (TK-10)	GI50 (RPMI-8226)	GI50 (A549)	GI50 (OVCAR-8)	GI50 (NCI/ADR-RES)	GI50 (MOLT-4)	GI50 (M14)	GI50 (HT-29)	GI50 (SK-MEL-28)	GI50 (MDA-N)	GI50 (ACHN)	GI50 (NCI-H522)	GI50 (OVCAR-4)	GI50 (NCI-H226)
NCCc1cc(O)c(O)cc1O [OXIDOPAMINE HYDROCHLORIDE]	29.2 µM (inactive)	23.7 µM (inactive)	56.2 µM (inactive)	20.4 µM (inactive)	21 µM (inactive)	18.6 µM (inactive)	62.5 µM (inactive)	3.19 µM (inactive)	35 µM (inactive)	32.4 µM (inactive)	34.4 µM (inactive)	21.8 µM (inactive)	20 µM (inactive)	32.3 µM (inactive)	> 100 µM (inactive)	22.6 µM (inactive)	20.9 µM (inactive)	–	–	–
Cc1c(F)c(N)c2c(=O)cc(-c3ccc(NC(=O)C(N)CCCNC(=N)N)c(F)c3)oc2c1F (stereo unspecified)	0.146 µM (active)	–	0.134 µM (active)	0.262 µM (active)	> 61.5 µM (inactive)	0.0792 µM (active)	0.146 µM (active)	> 33.5 µM (inactive)	3.68 µM (inactive)	32.1 µM (inactive)	23.9 µM (inactive)	34.6 µM (inactive)	31.7 µM (inactive)	> 71.8 µM (inactive)	24.7 µM (inactive)	32.1 µM (inactive)	19.7 µM (inactive)	24.8 µM (inactive)	0.141 µM (active)	0.111 µM (active)
Cc1nc2ccc([N+](=O)[O-])cc2c(=O)n1C(=S)Nc1cccc(Cl)c1	14.9 µM (inactive)	16.5 µM (inactive)	9.02 µM (inactive)	17.3 µM (inactive)	22 µM (inactive)	18.1 µM (inactive)	23.8 µM (inactive)	4.06 µM (inactive)	23.2 µM (inactive)	–	19.4 µM (inactive)	17.9 µM (inactive)	21.9 µM (inactive)	17.7 µM (inactive)	17.6 µM (inactive)	16.4 µM (inactive)	17.5 µM (inactive)	–	19.5 µM (inactive)	14.9 µM (inactive)
O=C(OCC1CCCN2CCCCC12)c1ccncc1 (stereo unspecified)	> 100 µM (inactive)	> 100 µM (inactive)	> 100 µM (inactive)	> 100 µM (inactive)	> 100 µM (inactive)	> 100 µM (inactive)	> 100 µM (inactive)	> 100 µM (inactive)	> 100 µM (inactive)	> 100 µM (inactive)	> 100 µM (inactive)	> 100 µM (inactive)	> 100 µM (inactive)	> 100 µM (inactive)	> 100 µM (inactive)	> 100 µM (inactive)	> 100 µM (inactive)	–	> 100 µM (inactive)	> 100 µM (inactive)
CCOC(=O)C1C/C(C)=C(/C)SCCCS1 (stereo unspecified)	> 100 µM (inactive)	–	> 100 µM (inactive)	> 100 µM (inactive)	> 100 µM (inactive)	–	> 100 µM (inactive)	58.6 µM (inactive)	> 100 µM (inactive)	> 100 µM (inactive)	> 100 µM (inactive)	38.2 µM (inactive)	> 100 µM (inactive)	> 100 µM (inactive)	> 100 µM (inactive)	> 100 µM (inactive)	> 100 µM (inactive)	13.5 µM (inactive)	> 100 µM (inactive)	> 100 µM (inactive)
Cc1ccc(Nc2cn(COCc3ccccc3)c(=O)[nH]c2=O)cc1	> 100 µM (inactive)	–	> 100 µM (inactive)	> 100 µM (inactive)	> 100 µM (inactive)	65.5 µM (inactive)	–	> 100 µM (inactive)	> 100 µM (inactive)	–	> 100 µM (inactive)	> 100 µM (inactive)	> 100 µM (inactive)	> 100 µM (inactive)	> 100 µM (inactive)	> 100 µM (inactive)	37 µM (inactive)	–	> 100 µM (inactive)	> 100 µM (inactive)
CCOC(=O)C1C(=O)C=C(c2cc(C)ccc2O)CC1c1cccc(Br)c1 (stereo unspecified)	19.5 µM (inactive)	–	17.9 µM (inactive)	15.7 µM (inactive)	25 µM (inactive)	21.9 µM (inactive)	17.7 µM (inactive)	13.9 µM (inactive)	20.1 µM (inactive)	30 µM (inactive)	13.4 µM (inactive)	16 µM (inactive)	17.4 µM (inactive)	18.9 µM (inactive)	–	4.05 µM (inactive)	18.7 µM (inactive)	14.7 µM (inactive)	0.075 µM (active)	15.7 µM (inactive)
CSc1c(C#N)c(=O)[nH]c2[nH]nc(C)c12	> 100 µM (inactive)	> 100 µM (inactive)	> 100 µM (inactive)	> 100 µM (inactive)	> 100 µM (inactive)	22.1 µM (inactive)	> 100 µM (inactive)	> 100 µM (inactive)	> 100 µM (inactive)	> 100 µM (inactive)	> 100 µM (inactive)	> 100 µM (inactive)	> 100 µM (inactive)	> 100 µM (inactive)	> 100 µM (inactive)	> 100 µM (inactive)	–	–	> 100 µM (inactive)	> 100 µM (inactive)
Clc1ccc2c(c1)N(CCCN1CCCC13CCCCC3)c1ccccc1S2	7.48 µM (inactive)	–	3.08 µM (inactive)	10.3 µM (inactive)	14.9 µM (inactive)	24.2 µM (inactive)	14.5 µM (inactive)	2.79 µM (inactive)	17.3 µM (inactive)	16.5 µM (inactive)	14.7 µM (inactive)	3.76 µM (inactive)	13.6 µM (inactive)	4.33 µM (inactive)	14.9 µM (inactive)	13.1 µM (inactive)	20.3 µM (inactive)	10.6 µM (inactive)	15.4 µM (inactive)	35.3 µM (inactive)
COC(=O)/C=C/c1ccc2c(c1)[C@H](C(=O)OC)[C@@H](c1ccc(O)cc1)O2	35.1 µM (inactive)	–	10.9 µM (inactive)	32.5 µM (inactive)	6.08 µM (inactive)	45.3 µM (inactive)	41.4 µM (inactive)	> 10 µM (inactive)	34.2 µM (inactive)	37 µM (inactive)	32.3 µM (inactive)	8.45 µM (inactive)	10.5 µM (inactive)	27.9 µM (inactive)	23.1 µM (inactive)	5.06 µM (inactive)	42.6 µM (inactive)	21.4 µM (inactive)	29.3 µM (inactive)	55.8 µM (inactive)
Nc1nc(Cl)c2nnn(CC3CCC(CO)C3)c2n1 (stereo unspecified)	–	> 100 µM (inactive)	> 100 µM (inactive)	> 100 µM (inactive)	> 100 µM (inactive)	> 100 µM (inactive)	> 100 µM (inactive)	> 100 µM (inactive)	> 100 µM (inactive)	–	> 100 µM (inactive)	–	> 100 µM (inactive)	–	> 100 µM (inactive)	> 100 µM (inactive)	> 100 µM (inactive)	–	> 100 µM (inactive)	> 100 µM (inactive)

From ChEMBL document CHEMBL1201862, “PubChem BioAssay data set” (2004)
